Assay results published in US20260273028A1, “PEROXIDASE COMPOSITIONS CONTAINING IMPROVED ENHANCING AGENTS” (FLEN HEALTH PHARMA NV, priority 2022, published 2026).

System: Candida albicans ATCC®10231™
Assay: MIC determination, broth microdilution, GOX+LPO with potentiator candidate
Type: cell-based
Conditions: C. albicans; enhancer 0.01%
Method: The minimum inhibitory concentration (MIC) is defined as the lowest concentration of an antimicrobial agent that results in a complete inhibition of microbial growth (determined via visual evaluation or absorbance measurements) after overnight incubation. This endpoint measurement is used to define the microbial susceptibility towards an antimicrobial agent. Here, the antimicrobial agent is a combination of the natural enzymes GOX+LPO.
To determine the MIC of the described combinations, a classical broth microdilution assay was used to determine the susceptibility of a series of microbes commonly detected in infected wounds, including (a) the Gram-positive bacterium Staphylococcus aureus ATCC® 6538™ (results shown below), (b) the Gram-negative bacterium Pseudomonas aeruginosa ATCC®9027™ (results shown below), (c) the yeast Candida albicans ATCC®10231™ (results shown below), and (d) the fungus Aspergillus niger ATCC®16404™ (results shown below). In brief, a […] serial dilution of the enzymatic GOX+LPO solution was prepared in a transparent, flat-bottomed 96-well test plate with final concentrations ranging from 0.005 to 0.00000977% (v/v). To each well, a fixed volume of the enzymatic substrate containing 3,3% (w/v) glucose and 0,084% (w/v) potassium iodide, as well as the microbial inoculum with an OD600 of 0.1 was added. In the event the enzyme combination was evaluated in the presence of a potentiator candidate, the latter was added together with the enzymatic substrate in a final concentration ranging from 100 to 0,00125% (v/v). For each combination evaluated, a blank (no addition of microbial inoculum) was included. Positive (inoculum only) and negative (background solution only) were included to evaluate the performance of the test and to select the enzymatic GOX+LPO concentration at which no microbial growth is detected (i.e., absorbance equal to that of the background solution only). Then, the 96-well test plate was incubated for 24 hours at 37° C. (S. aureus, P. aeruginosa and C. albicans) or 25° C. (A. niger). After incubation, the absorbance of each well was measured using a plate spectrophotometer (Spectramax ID3, Molecular Devices). For each combination evaluated, this test was repeated at least 5 times. The collected data were further analyzed in MS Excel. Mean absorbance data were visualized in a table format in which the MIC was highlighted.

MIC: GOX+LPO enzyme solution needed to completely inhibit growth: 0.0000391 % (v/v) | increase in MIC compared to reference: 4 × | increase in MIC compared to the enhancing molecule guaiacol: 2 ×
Structure (SMILES): CC[C@H](C)[C@H](N)C(=O)O [Isoleucine, isoleucine]
